Earlier results, collected in patent US20190328884A1, “COMPOSITIONS AND METHODS OF THEIR USE” (Chemic Laboratories, Inc., priority 2018, published 2019).

Conditions: in vivo

NC(=O)N1c2ccccc2C=Cc2ccccc21 [carbamezepine]
decrease in white blood cell count: 25% | increase in the risk of blood dyscrasias: five- to eight | patients shown to have a 25% decrease in their white blood cell count: 7%
